Measured values from ChEMBL document CHEMBL1142196, “Leishmania donovani polyamine biosynthetic enzyme overproducers as tools to investigate the mode of action of cytotoxic polyamine analogs” (Antimicrob Agents Chemother, 2007).
Activity calls are given as the source filed them. The calls are words filed in the database; no cut-off is given here.

What was measured:
[1] = tested on: Leishmania donovani; assay: Antiproliferative activity against Leishmania donovani DI700 promastigotes; format: functional, organism-based
[2] = tested on: Leishmania donovani; assay: Growth of Leishmania donovani DI700 promastigotes at 100 uM relative to control
[3] = tested on: Leishmania donovani; assay: Antiproliferative activity against Leishmania donovani DI700 promastigotes overproducing SPDSYN enzyme; format: functional, organism-based
[4] = tested on: Leishmania donovani; assay: Antiproliferative activity against Leishmania donovani DI700 promastigotes overproducing ODC enzyme; format: functional, organism-based
[5] = tested on: Leishmania donovani; assay: Antiproliferative activity against Leishmania donovani DI700 promastigotes overproducing ADOMETDC enzyme; format: functional, organism-based
[6] = tested on: Leishmania donovani; assay: Antiproliferative activity against Leishmania donovani DI700 promastigotes in presence of 100 uM spermidine; format: functional, organism-based
[7] = tested on: Leishmania donovani; assay: Antiproliferative activity against Leishmania donovani DI700 promastigotes in presence of 100 uM putrescine; format: functional, organism-based

SMILES	Activity [1]	growth, % of control at 100 µM [2] [%]	EC50 [3] [µM]	EC50 [1] [µM]	EC50 [4] [µM]	EC50 [5] [µM]	EC50 [6] [µM]	EC50 [7] [µM]
CCNCCCCNC/C=C\CNCCCCNCCCCNCC	inactive	96.2	–	–	–	–	–	–
CCCCCCCCCCCCCC1CCN(CCCN)CCCN(C)CCCCN(C)CCCCN1C (stereo not given)	inactive	98.3	–	–	–	–	–	–
CCNCCCCNCC1CCC1CNCCCCNCC (stereo not given)	inactive	92.8	–	–	–	–	–	–
CCNC/C=C\CNCCCCNCCCCNCCCCNCC	inactive	83.2	–	–	–	–	–	–
CCNCCCCNCC1CC1CNCCCCN(CC)C(=O)CCC1=C(C)c2cc3[nH]c(cc4nc(cc5[nH]c(cc1n2)c(CCC(=O)N(CC)CCCCNCC1CC1CNCCCCNCC)c5C)C(CC)=C4C)c(CC)c3C (stereo not given)	inactive	1.3	–	–	–	–	–	–
CCNCCCCNCC1CC1CNCCCCNCC (stereo not given)	inactive	81.4	–	–	–	–	–	–
CCNCCCCNCCCCNCCCCNCCCCNCCCCNCCCCNCCCCNCCCCNCCCCNCC	–	62.6	50	9	9	–	–	–
CCNCCCCNCCCCNCCCCNCCCCN(CC)CCCCNCCCCNCCCCNCCCCNCC	inactive	102	–	–	–	–	–	–
N=C(N)c1ccc(OCCCCCOc2ccc(C(=N)N)cc2)cc1 [PENTAMIDINE]	–	–	1.7	1.9	2.6	1.7	2	1.9
CCNC/C=C\CNCCCCNC/C=C\CNCC	inactive	128	–	–	–	–	–	–
CCNCCCCNCCCCNCCCCNCCCCNCCCCNCCCCNC/C=C/CNCCCCNCCCCNCCCCNCCCCNCCCCNCCCCNCC	–	7.9	–	6.5	–	–	–	–
CCNCCCCNCCCCNCCCCNCCCCNCC1CC1CNCCCCNCCCCNCCCCNCCCCNCC (stereo not given)	inactive	73	–	–	–	–	–	–
CCCCN [BUTYLAMINE]	–	–	3300	400	2100	200	> 10000	2000
CN(C/C=C\CN)C[C@H]1O[C@@H](n2cnc3c(N)ncnc32)[C@H](O)[C@@H]1O	–	–	200	40	2700	> 10000	> 10000	800
CCCCCCCCCCCCCC1CCN(CCCNC(=O)CCC2=C(C)c3cc4[nH]c(cc5nc(cc6[nH]c(cc2n3)c(CCC(=O)NCCCN2CCCN(C)CCCCN(C)CCCN(C)C(CCCCCCCCCCCCC)CC2)c6C)C(CC)=C5C)c(CC)c4C)CCCN(C)CCCCN(C)CCCN1C (stereo not given)	–	1.7	–	50	–	–	–	–
CCNCCCCNCC1CC1CNCCCCNCC1CC1CNCCCCNCC (stereo not given)	inactive	118	–	–	–	–	–	–

SMILES	Activity [1]	growth, % of control at 100 µM [2] [%]	EC50 [3] [µM]	EC50 [1] [µM]	EC50 [4] [µM]	EC50 [5] [µM]	EC50 [6] [µM]	EC50 [7] [µM]
CC(/C=N/NC(=N)N)=N\NC(=N)N [MITOGUAZONE]	–	–	1400	1800	2200	1500	1800	2600
CCNCCCNCC1CC1CNCCCNCC (stereo not given)	inactive	106	–	–	–	–	–	–
CCNCCCCNCCCCNCCCCNCCCCNCCCCNC/C=C/CNCCCCNCCCCNCCCCNCCCCNCCCCNCC	inactive	7.5	–	–	–	–	–	–
N=C(N)c1ccc(/N=N/Nc2ccc(C(=N)N)cc2)cc1 [DIMINAZENE]	–	–	8	9.5	8.7	9.7	9.7	6.1
CCNCCCCNCCCCNCCCCNCCCCNC/C=C/CNCCCCNCCCCNCCCCNCCCCNCC	inactive	62.4	–	–	–	–	–	–
CCNCCCCNCCCCNCCCCNCCCCNCCCCNCCCCNCCCCNCC	inactive	99.2	–	–	–	–	–	–
CCNCCCCNCCCCNCCCCNCCCCNCCCCNCCCCNCCCCNCCCCNCCCCNCCCCNCCCCNCC	–	8.4	0.5	0.4	5.5	–	–	–
CCNCCCCNCCCCNCCCCNCCCCNCCCCNCCCCNCCCCNCCCCNCCCCN(CC)C(=O)CCC1=C(C)c2cc3[nH]c(cc4nc(cc5[nH]c(cc1n2)c(CCC(=O)N(CC)CCCCNCCCCNCCCCNCCCCNCCCCNCCCCNCCCCNCCCCNCCCCNCC)c5C)C(S(=O)(=O)O)=C4C)c(S(=O)(=O)O)c3C	–	1.1	–	0.7	–	–	–	–
CCNC/C=C\CNC/C=C\CNC/C=C\CNCC	inactive	104	–	–	–	–	–	–
CCNCCCCNCCCCNCCCCNCCCCNC/C=C\CNCCCCNCCCCNCCCCNCCCCNCC	inactive	25.7	–	–	–	–	–	–
CCNCCCCNCCCCNCCCCNC/C=C/CNCCCCNCCCCNCCCCNCC	inactive	85.5	–	–	–	–	–	–
NCCC[C@](N)(C(=O)O)C(F)F [EFLORNITHINE, (S)-]	–	–	40	40	> 1000	30	130	> 1000
CCNCCCCNCCCCNCCCCNCCCCNCCCCNCCCCNCCCCNCCCCNCCCCN(CC)C(=O)CCC1=C(C)c2cc3[nH]c(cc4nc(cc5[nH]c(cc1n2)c(CCC(=O)N(CC)CCCCNCCCCNCCCCNCCCCNCCCCNCCCCNCCCCNCCCCNCCCCNCC)c5C)C(CC)=C4C)c(CC)c3C	–	2.2	–	0.5	–	–	–	–
CCNCCCCNCCCCNCCCCNC/C=C\CNCCCCNCCCCNCCCCNCC	inactive	97.2	–	–	–	–	–	–
CCNCCCCNCCCCNCCCCNCCCCNCCCCNCCCCNCCCCNCCCCNCCCCNCCCCNCCCCNCCCCNCCCCNCC	–	8.9	–	9	–	–	–	–
